Tests used:
Format in all cases: cell-based
[1] = target: T1, CDK4 (Homo sapiens, UniProt P11802+Q16531); experiment: HiBiT detection of HiBiT-tagged CDK4 protein level in MCF7 cells, 16 hours (Table 8); design: expressed in transfected cells; host or cells: MCF7; settings: MCF7 cells stably expressing HiBiT tagged target proteins; for activity at 0.01 µM: 10 nM, read-out: % CDK4 Relative Level (10 nM); for activity at 0.1 µM: 100 nM, read-out: % CDK4 Relative Level (100 nM)
Procedure: HiBiT detection system quantitatively measures total amounts of HiBiT-tagged proteins using a luminescent based method. MCF7 cells stably expressing HiBiT tagged target proteins were treated with heterobifunctional compounds at indicated concentrations for 16 hours, then lysed with Nano-Glo HiBiT Lytic detection reagents.
Target sequence in this assay (P11802 whole entry): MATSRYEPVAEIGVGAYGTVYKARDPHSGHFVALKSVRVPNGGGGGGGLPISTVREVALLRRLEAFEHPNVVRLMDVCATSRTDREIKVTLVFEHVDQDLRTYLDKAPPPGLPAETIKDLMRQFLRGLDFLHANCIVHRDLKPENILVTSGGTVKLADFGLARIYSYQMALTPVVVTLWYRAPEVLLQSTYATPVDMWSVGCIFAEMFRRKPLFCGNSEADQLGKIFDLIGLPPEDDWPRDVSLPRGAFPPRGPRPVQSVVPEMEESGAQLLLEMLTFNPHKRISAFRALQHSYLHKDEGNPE
Target sequence in this assay (P24385 whole entry partner): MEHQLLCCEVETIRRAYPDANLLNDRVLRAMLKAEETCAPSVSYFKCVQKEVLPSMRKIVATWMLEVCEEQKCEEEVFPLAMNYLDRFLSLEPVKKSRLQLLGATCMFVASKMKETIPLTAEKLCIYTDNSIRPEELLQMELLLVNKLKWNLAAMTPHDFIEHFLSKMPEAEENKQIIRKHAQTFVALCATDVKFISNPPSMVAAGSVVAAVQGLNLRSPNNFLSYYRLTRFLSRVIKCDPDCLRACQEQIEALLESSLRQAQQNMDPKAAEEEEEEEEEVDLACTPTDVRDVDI
Target sequence in this assay (Q16531 2-1140 limits assumed): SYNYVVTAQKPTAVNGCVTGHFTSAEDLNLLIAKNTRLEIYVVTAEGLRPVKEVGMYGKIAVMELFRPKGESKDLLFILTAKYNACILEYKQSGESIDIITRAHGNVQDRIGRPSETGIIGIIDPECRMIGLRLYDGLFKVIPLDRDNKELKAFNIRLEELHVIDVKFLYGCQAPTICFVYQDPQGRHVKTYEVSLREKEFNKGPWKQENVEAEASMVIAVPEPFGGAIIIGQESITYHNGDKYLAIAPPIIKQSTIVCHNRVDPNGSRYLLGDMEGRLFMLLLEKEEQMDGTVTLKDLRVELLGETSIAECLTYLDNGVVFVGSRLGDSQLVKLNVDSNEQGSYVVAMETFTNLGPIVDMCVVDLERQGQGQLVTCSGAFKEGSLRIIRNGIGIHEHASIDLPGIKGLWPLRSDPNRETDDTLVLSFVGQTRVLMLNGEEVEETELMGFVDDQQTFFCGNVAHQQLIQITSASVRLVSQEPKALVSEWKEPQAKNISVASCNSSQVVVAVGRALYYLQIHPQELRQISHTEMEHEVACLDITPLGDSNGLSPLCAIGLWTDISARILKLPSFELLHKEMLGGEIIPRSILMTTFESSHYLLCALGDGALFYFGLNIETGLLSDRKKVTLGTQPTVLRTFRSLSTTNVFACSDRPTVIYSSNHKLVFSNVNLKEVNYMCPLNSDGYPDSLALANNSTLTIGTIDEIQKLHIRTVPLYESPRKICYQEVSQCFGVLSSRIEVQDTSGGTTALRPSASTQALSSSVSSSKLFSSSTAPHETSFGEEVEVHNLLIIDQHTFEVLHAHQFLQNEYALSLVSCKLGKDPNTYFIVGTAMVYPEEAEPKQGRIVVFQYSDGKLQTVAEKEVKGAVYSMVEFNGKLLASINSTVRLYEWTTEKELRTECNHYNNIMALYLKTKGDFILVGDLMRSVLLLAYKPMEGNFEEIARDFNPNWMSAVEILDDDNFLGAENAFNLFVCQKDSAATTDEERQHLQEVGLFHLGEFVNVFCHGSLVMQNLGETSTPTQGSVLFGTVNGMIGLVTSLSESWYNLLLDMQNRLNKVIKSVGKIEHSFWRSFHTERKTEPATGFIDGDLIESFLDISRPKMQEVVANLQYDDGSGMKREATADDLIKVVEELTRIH

[2] = system: MCF7 cells; experiment: Anti-proliferation (viability) of MCF7 cells (Table 7, FIG. 2B); settings: Homo sapiens, MCF7, MCF7 cells, 3-6 days, 10-point serial dilution; read-out: GI IC50 in MCF-7
[3] = target: T1, CDK4; experiment: CDK4 percentage degradation in Calu-1 cells (Table 6); design: Cells that express cyclin D1-3 and CDK4/6 proteins were treated with heterobifunctional compounds; endogenous in cells; host or cells: Calu-1; settings: 16 hours; for inhibition at 0.04 µM: 40 nM; for inhibition at 0.2 µM: 200 nM
In short: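 Calu-1 cells exposed to heterobifunctional compounds at 40 nM or 200 nM for 16 h. Cyclin D1 and CDK4 levels measured by Western blot of RIPA lysates (BCA-normalised loading), bands quantified by densitometry and expressed as percentage degradation.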
Target sequence in this assay (P11802 2-303 limits assumed): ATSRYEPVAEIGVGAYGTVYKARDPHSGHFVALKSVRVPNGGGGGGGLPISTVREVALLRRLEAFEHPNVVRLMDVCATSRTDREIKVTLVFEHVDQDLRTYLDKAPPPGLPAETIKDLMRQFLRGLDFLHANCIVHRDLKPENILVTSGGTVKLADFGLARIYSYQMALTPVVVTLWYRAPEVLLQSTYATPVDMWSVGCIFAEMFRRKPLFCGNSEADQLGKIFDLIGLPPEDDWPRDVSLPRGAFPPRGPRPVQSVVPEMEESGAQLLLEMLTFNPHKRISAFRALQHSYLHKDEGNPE
Target sequence in this assay (P24385 whole entry partner): as the sequence (P24385 whole entry partner) above
Target sequence in this assay (Q16531 2-1140 limits assumed): as the sequence (Q16531 2-1140 limits assumed) above

Row | activity at 0.01 µM [1] [%] | activity at 0.1 µM [1] [%] | IC50 [2] [nM] | inhibition at 0.04 µM [3] [%] | inhibition at 0.2 µM [3] [%] | Compound
1 | > 85 | > 85 | – | – | – | CNc1ccc(C(=O)Nc2ccc(N(C)C)nn2)c(NCCOCCOCCC(=O)N2CCN(c3ccc(Nc4ncc5cc(C(=O)N(C)C)n(C6CCCC6)c5n4)nc3)CC2)n1 [CPD-623, 7-cyclopentyl-2-((5-(4-(3-(2-(2-((3-((6-(dimethylamino)pyridazin-3-yl)carbamoyl)-6-(methylamino)pyridin-2-yl)amino)ethoxy)ethoxy)propanoyl)piperazin-1-yl)pyridin-2-yl)amino)-N,N-dimethyl-7H-pyrrolo[2,3-d]pyrimidine-6-carboxamide]
2 | > 85 | > 85 | – | – | – | CNc1ccc(C(=O)Nc2ccc(N(C)C)nn2)c(NCCCC(=O)N2CCN(c3ccc(Nc4ncc(F)c(-c5cc(F)c6nc(C)n(C(C)C)c6c5)n4)nc3)CC2)n1 [CPD-649, N-(6-(dimethylamino)pyridazin-3-yl)-2-((4-(4-(6-((5-fluoro-4-(4-fluoro-1-isopropyl-2-methyl-1H-benzo[d]imidazol-6-yl)pyrimidin-2-yl)amino)pyridin-3-yl)piperazin-1-yl)-4-oxobutyl)amino)-6-(methylamino)nicotinamide]
3 | > 85 | > 85 | – | – | – | CNc1ccc(C(=O)Nc2ccc(N(C)C)nn2)c(NCCCCC(=O)N2CCN(c3ccc(Nc4ncc(F)c(-c5cc(F)c6nc(C)n(C(C)C)c6c5)n4)nc3)CC2)n1 [CPD-650, N-(6-(dimethylamino)pyridazin-3-yl)-2-((5-(4-(6-((5-fluoro-4-(4-fluoro-1-isopropyl-2-methyl-1H-benzo[d]imidazol-6-yl)pyrimidin-2-yl)amino)pyridin-3-yl)piperazin-1-yl)-5-oxopentyl)amino)-6-(methylamino)nicotinamide]
4 | – | – | < 50 | < 30 | < 30 | CC(=O)c1c(C)c2cnc(Nc3ccc(N4CCC5(CC4)CC5C(=O)N4CC5(CC(Nc6nc(NC(C)C)ccc6C(=O)Nc6ccc(N(C)C)nn6)C5)C4)cn3)nc2n(C2CCCC2)c1=O (stereo not drawn) [CPD-411, 2-((2-(6-(6-((6-acetyl-8-cyclopentyl-5-methyl-7-oxo-7,8-dihydropyrido[2,3-d]pyrimidin-2-yl)amino)pyridin-3-yl)-6-azaspiro[2.5]octane-1-carbonyl)-2-azaspiro[3.3]heptan-6-yl)amino)-N-(6-(dimethylamino)pyridazin-3-yl)-6-(isopropylamino)nicotinamide]

The remaining lines, values behind:

Row | Compound | activity at 0.01 µM [1] [%] | activity at 0.1 µM [1] [%] | IC50 [2] [nM] | inhibition at 0.04 µM [3] [%] | inhibition at 0.2 µM [3] [%]
5 | [2H]C([2H])([2H])Nc1ccc(C(=O)Nc2ccc(N(C)C)nn2)c(NC2CCN(C(=O)CN3CCN(c4ccc(Nc5ncc6c(C)c(C(C)=O)c(=O)n(C7CCCC7)c6n5)nc4)CC3)CC2)n1 [CPD-250, 2-((1-(2-(4-(6-((6-acetyl-8-cyclopentyl-5-methyl-7-oxo-7,8-dihydropyrido[2,3-d]pyrimidin-2-yl)amino)pyridin-3-yl)piperazin-1-yl)acetyl)piperidin-4-yl)amino)-N-(6-(dimethylamino)pyridazin-3-yl)-6-((methyl-d3)amino)nicotinamide] | – | – | 50 to 100 | 30 to 50 | 50 to 80
6 | [2H]C([2H])([2H])Nc1ccc(C(=O)Nc2cn(C)c(C3CC3)n2)c(NC2CC3(CC(NC(=O)CN4CCN(c5ccc(Nc6ncc7c(C)c(C(C)=O)c(=O)n(C8CCCC8)c7n6)nc5)CC4)C3)C2)n1 (stereo not drawn) [CPD-237, 2-((6-(2-(4-(6-((6-acetyl-8-cyclopentyl-5-methyl-7-oxo-7,8-dihydropyrido[2,3-d]pyrimidin-2-yl)amino)pyridin-3-yl)piperazin-1-yl)acetamido)spiro[3.3]heptan-2-yl)amino)-N-(2-cyclopropyl-1-methyl-1H-imidazol-4-yl)-6-((methyl-d3)amino)nicotinamide] | – | – | > 100 | 50 to 80 | 50 to 80
7 | CNc1ccc(C(=O)Nc2ccc(N(C)C)nn2)c(NC2CC(C(=O)N3CCC(N4CCN(c5ccc(Nc6ncc7c(C)c(C(C)=O)c(=O)n(C8CCCC8)c7n6)nc5)CC4)C3)C2)n1 (stereo not drawn) [CPD-333, 2-((3-(3-(4-(6-((6-acetyl-8-cyclopentyl-5-methyl-7-oxo-7,8-dihydropyrido[2,3-d]pyrimidin-2-yl)amino)pyridin-3-yl)piperazin-1-yl)pyrrolidine-1-carbonyl)cyclobutyl)amino)-N-(6-(dimethylamino)pyridazin-3-yl)-6-(methylamino)nicotinamide] | – | – | < 50 | < 30 | < 30
8 | CC(=O)c1c(C)c2cnc(Nc3ccc(N4CCN(C(C)CC(=O)N5CCC(Nc6nc(NC(C)C)ccc6C(=O)Nc6ccc(N(C)C)nn6)CC5)CC4)cn3)nc2n(C2CCCC2)c1=O (stereo not drawn) [CPD-359, 2-((1-(3-(4-(6-((6-acetyl-8-cyclopentyl-5-methyl-7-oxo-7,8-dihydropyrido[2,3-d]pyrimidin-2-yl)amino)pyridin-3-yl)piperazin-1-yl)butanoyl)piperidin-4-yl)amino)-N-(6-(dimethylamino)pyridazin-3-yl)-6-(isopropylamino)nicotinamide] | – | – | < 50 | < 30 | < 30
9 | CC(=O)c1c(C)c2cnc(Nc3ccc(N4CCN(C(CC(=O)N5CC6(CC(Nc7nc(NC(C)C)ccc7C(=O)Nc7ccc(N(C)C)nn7)C6)C5)C(F)(F)F)CC4)cn3)nc2n(C2CCCC2)c1=O (stereo not drawn) [CPD-367, 2-((2-(3-(4-(6-((6-acetyl-8-cyclopentyl-5-methyl-7-oxo-7,8-dihydropyrido[2,3-d]pyrimidin-2-yl)amino)pyridin-3-yl)piperazin-1-yl)-4,4,4-trifluorobutanoyl)-2-azaspiro[3.3]heptan-6-yl)amino)-N-(6-(dimethylamino)pyridazin-3-yl)-6-(isopropylamino)nicotinamide] | – | – | < 50 | < 30 | < 30
10 | CNc1ccc(C(=O)Nc2ccc(N(C)C)nn2)c(NC2CC(Cn3cc(CN4CCN(c5ccc(Nc6ncc7c(C)c(C(C)=O)c(=O)n(C8CCCC8)c7n6)nc5)CC4)nn3)C2)n1 (stereo not drawn) [CPD-202, 2-((3-((4-((4-(6-((6-acetyl-8-cyclopentyl-5-methyl-7-oxo-7,8-dihydropyrido[2,3-d]pyrimidin-2-yl)amino)pyridin-3-yl)piperazin-1-yl)methyl)-1H-1,2,3-triazol-1-yl)methyl)cyclobutyl)amino)-N-(6-(dimethylamino)pyridazin-3-yl)-6-(methylamino)nicotinamide] | – | – | < 50 | 50 to 80 | 50 to 80
11 | CC(=O)c1c(C)c2cnc(Nc3ccc(N4CCN(C(C)C(=O)NC5CC(Nc6nc(NC(C)C)ccc6C(=O)Nc6ccc(N(C)C)nn6)C5)CC4)cn3)nc2n(C2CCCC2)c1=O (stereo not drawn) [CPD-326, 2-((3-(2-(4-(6-((6-acetyl-8-cyclopentyl-5-methyl-7-oxo-7,8-dihydropyrido[2,3-d]pyrimidin-2-yl)amino)pyridin-3-yl)piperazin-1-yl)propanamido)cyclobutyl)amino)-N-(6-(dimethylamino)pyridazin-3-yl)-6-(isopropylamino)nicotinamide] | – | – | 50 to 100 | < 30 | < 30
12 | [2H]C([2H])([2H])Nc1ccc(C(=O)Nc2ccc(N(C)C)nn2)c(NC2CC3(C2)CN(C(=O)CC(C)N2CCN(c4ccc(Nc5ncc6c(C)c(C(C)=O)c(=O)n(C7CCCC7)c6n5)nc4)CC2)C3)n1 (stereo not drawn) [CPD-341, 2-((2-(3-(4-(6-((6-acetyl-8-cyclopentyl-5-methyl-7-oxo-7,8-dihydropyrido[2,3-d]pyrimidin-2-yl)amino)pyridin-3-yl)piperazin-1-yl)butanoyl)-2-azaspiro[3.3]heptan-6-yl)amino)-N-(6-(dimethylamino)pyridazin-3-yl)-6-((methyl-d3)amino)nicotinamide] | – | – | < 50 | < 30 | < 30
13 | CC(=O)c1c(C)c2cnc(Nc3ccc(N4CCN(C5CCN(C(=O)[C@H]6CC[C@H](Nc7nc(NC(C)C)ccc7C(=O)Nc7ccc(N(C)C)nn7)CC6)C5)CC4)cn3)nc2n(C2CCCC2)c1=O (stereo partly drawn) [CPD-399, 2-((−4-(3-(4-(6-((6-acetyl-8-cyclopentyl-5-methyl-7-oxo-7,8-dihydropyrido[2,3-d]pyrimidin-2-yl)amino)pyridin-3-yl)piperazin-1-yl)pyrrolidine-1-carbonyl)cyclohexyl)amino)-N-(6-(dimethylamino)pyridazin-3-yl)-6-(isopropylamino)nicotinamide] | – | – | < 50 | < 30 | < 30
14 | CC(=O)c1c(C)c2cnc(Nc3ccc(N4CCN(CC5(C(=O)N6CC7(CC(Nc8nc(NC(C)C)ccc8C(=O)Nc8cn(C)c(C9CC9)n8)C7)C6)CC5)CC4)cn3)nc2n(C2CCCC2)c1=O [CPD-322, 2-((2-(1-((4-(6-((6-acetyl-8-cyclopentyl-5-methyl-7-oxo-7,8-dihydropyrido[2,3-d]pyrimidin-2-yl)amino)pyridin-3-yl)piperazin-1-yl)methyl)cyclopropane-1-carbonyl)-2-azaspiro[3.3]heptan-6-yl)amino)-N-(2-cyclopropyl-1-methyl-1H-imidazol-4-yl)-6-(isopropylamino)nicotinamide] | – | – | < 50 | < 30 | < 30

Source: patent US20260297081A1, “COMPOUNDS AND METHODS OF TREATING CANCERS” (Cullgen Inc., priority 2023, published 2026)
